Laboratory results published in US4575504A, “Thienothiazole derivatives” (Dr. Karl Thomae GmbH, priority 1982, dated 1986).
Counter-ions that a name gives are not always drawn.

Legend:
[1] = system: postsynaptic α-adrenoceptors; experiment: Effect on postsynaptic α-adrenoceptors: increase in blood pressure in the spinal rat; type: in vivo; conditions: dosage which increased arterial blood pressure by 30 mmHg, i.v.
Protocol: 3. Effect on postsynaptic α-adrenoceptors: Increase in blood pressure in the spinal rat Method: The increase in blood pressure occurring after the stimulation of postsynaptic α-adrenoreceptors is measured in the spinal rat. Description of test: Male rats weighing from 200 to 250 g were anesthetized (1.2 g/kg of urethane i.p., 1 mg/kg of atropine s.c.). Then the central canal of the spinal cord was opened up. The spinal cord was severed at C1, and the medulla oblongata and the brain were destroyed with a metal probe. The animals were artificially ventilated; a polyethylene catheter was secured in a jugular vein, and the blood pressure was recorded from an A. carotis by means of a Statham element on a Grass polygraph. The dosage (D30) which increased the arterial blood pressure by 30 mmHg was determined.

intact anesthetized rat [2] = experiment: Effect on blood pressure and heart rate in the intact anesthetized rat after intravenous injection; type: in vivo; conditions: 3 mg/kg i.v.
Protocol: 1. Effect on blood pressure and heart rate Method: Changes in circulation after intravenous injection of the test substance were recorded in the intact anesthetized rat. Male rats weighing 200 g were anesthetized with pentobarbital (50 mg/kg i.p.). The animals breathed spontaneously through a tracheal cannula secured in position. The blood pressure was measured at an A. carotis using an electromechanical pressure transducer; the pulse wave triggered a tachograph which recorded the heart rate continuously. Both parameters were recorded on the polygraph. The test substance was injected into a V. jugularis through a catheter. The test substances, when administered at a dosage of 3 mg/kg i.v., produced a brief initial increase in blood pressure followed by a longer-lasting reduction in pressure.

[3] = system: presynaptic α-adrenoceptors; experiment: Effect on presynaptic α-adrenoceptors: inhibition of electrically triggered tachycardia in the spinal rat; type: in vivo; conditions: dosage which inhibits electrically induced tachycardia by 50%, i.v.
From the text: 2. Effect on presynaptic α-adrenoceptors: Inhibition of electrically triggered tachycardia Method: At the adrenergic nerve ending there is an autoregulating system for the relase of noradrenaline. The stimulation of presynaptic α-adrenoreceptors has an inhibiting effect on the release of noradrenaline and thus restricts adrenergic neurotransmission. Accordingly, if these "feedback receptors" are stimulated, the effect of a given adrenergic stimulation on the responding organ can be attenuated. In the electrically stimulated spinal rat, the tachycardia induced electrically in the heart is attenuated by substances with a presynaptic α-mimetic activity. Description of the test: Male rats weighing from 350 to 400 g were anesthetized with pentobarbital (50 mg/kg i.p.), vagotomized, treated with atropine (1 mg/kg s.c.) and fitted with a tracheal cannula. After enucleation of one eye, the orbits were pierced, the brain was destroyed, and a metal rod was pushed through the vertebral canal. The animals were artificially ventilated and pre-treated with gallamine (4 mg/kg i.v.). The metal rod used was 2.5 mm in diameter and was insulated (stove-enamelled). […] The blood pressure was measured at an A. carotis by means of an electromechanical pressure transducer. The pulse wave triggered a tachograph which continuously recorded the heart rate. Both signals were recorded on a multi-channel recorder.

[4] = Acute toxicity in mice after oral or intravenous administration; conditions: mouse, in vivo, observation period 14 days
Protocol: The acute toxicity was determined in mice after oral or intravenous administration (observation period: 14 days): […]

intact anesthetized rat [5] = experiment: Effect on blood pressure and heart rate in the intact anesthetized rat after intravenous injection; type: in vivo; conditions: 1.5 mg/kg i.v.

Compound	Blood pressure-increasing activity, D30 [1]	Blood pressure, depressor phase (maximum value) (intact anesthetized rat [2]) [mm Hg]	Blood pressure, pressor phase (maximum value) (intact anesthetized rat [2])	Lowering of heart rate (maximum value) (intact anesthetized rat [2]) [beats/minute]	Inhibition of electrically induced tachycardia, D50 [3] [μg/kg i.v.]	LD50 at 336 h ([4]; intravenous) [mg/kg]	LD50 at 336 h ([4]; oral) [mg/kg]	Blood pressure, depressor phase (maximum value) (intact anesthetized rat [5]) [mm Hg]	Blood pressure, pressor phase (maximum value) (intact anesthetized rat [5])	Lowering of heart rate (maximum value) (intact anesthetized rat [5]) [beats/minute]
CCN1CCc2sc3nc(N)sc3c2CC1.Cl.Cl [A, 7-ethyl-2-amino-6,7,8,9-tetrahydro-5H-thiazolo[4',5':5,4]thieno[2,3-d]azepine dihydrochloride]	145 μg/kg i.v.	-18	+52 mm Hg	-90	290	34	320	–	–	–
Nc1nc2sc3c(c2s1)CCN(Cc1ccccc1)CC3 [B, 2-amino-7-benzyl-6,7,8,9-tetrahydro-5H-thiazolo[4',5':5,4]thieno[2,3d]azepine]	–	-25	–	-95	–	–	–	–	–	–
C=CCN1CCc2sc3nc(N)sc3c2CC1.Cl.Cl [C, 7-allyl-2-amino-6,7,8,9-tetrahydro-5H-thiazolo[4',5':5,4]thieno[2,3-d]azepine dihydrochloride]	–	-15	+17 mm Hg	-150	–	–	–	–	–	–
CC(C)N1CCc2sc3nc(N)sc3c2CC1.Cl.Cl [Compound D, 2-amino-6,7,8,9-tetrahydro-7-isopropyl-5H-thiazolo[4',5':5,4]thieno[2,3-d]azepine dihydrochloride]	–	-20	+23 mm Hg	-78	–	–	–	–	–	–
CCN1CCc2c(sc3nc(N)sc23)C1 [E, 6-ethyl-2-amino-5,6,7,8-tetrahydro-thiazolo[4',5':5,4]thieno[2,3c]pyridine dihydrochloride]	–	-29	+30 mm Hg	-108	–	–	–	–	–	–
CCCN1CCc2c(sc3nc(N)sc23)C1.Cl.Cl [F, 2-amino-5,6,7,8-tetrahydro-6-propyl-thiazolo[4',5':5,4]thieno[2,3-c]pyridine dihydrochloride]	–	-12	+16 mm Hg	-65	–	–	> 300	–	–	–
CN1CCc2c(sc3nc(N)sc23)C1.Cl.Cl [G, 2-amino-5,6,7,8-tetrahydro-6-methyl-thiazolo[4',5':5,4]thieno[2,3-c]pyridine dihydrochloride]	–	-30	+46 mm Hg	-95	–	–	–	–	–	–
Cl.Cl.Nc1nc2sc3c(c2s1)CCNCC3 [H, 2-Amino-6,7,8,9-tetrahydro-5H-thiazolo[4',5':5,4]thieno[2,3-d]azepine dihydrochloride]	0.36 mg/kg i.v.	–	–	–	–	–	–	-34	+38 mm Hg	-100
